Data set [1] has as its system athymic mice bearing human prostate C4-2 cancer xenografts. The format is in vivo. Conditions: for 224Ra %ID/g: 224Ra measured 2 h after i.v. injection of the named 224Ra-solution; for %ID/g of 212Pb without 212Pb ingrowth from 224Ra: 2 h after i.v. injection of the 224Ra-solution.
The conditions of data set [2]: in man; cited from earlier work.
For data set [3] the following is noted: in mice; cited from earlier work.

Here are results for three molecules from PMC7527546 (Current Radiopharmaceuticals, 2020).

Read-outs that look alike come from different tables or passages of the source.

As to `NC(=O)CN1CCN(CC(N)=O)CCN(CC(N)=O)C(Cc2ccc(NC(=S)NCC3CCC(C(=O)NC(Cc4ccc5ccccc5c4)C(=O)NCCCCC(NC(=O)NC(CCC(=O)O)C(=O)O)C(=O)O)CC3)cc2)CN(CC(N)=O)CC1` (centres unmarked) [NG001, p-SCN-Bn-TCMC-PSMA ligand], the “lower kidney uptake compared with [212Pb]Pb-PSMA-617” value in data set [1] (2 h after injection) worked out at 3.5 fold.

`[Cl][212Pb][Cl]` [[212Pb]PbCl2]: the tumour-to-kidney ratio in data set [1] (2 h after i.v. injection of the 224Ra-solutions) was 0.04. For the same molecule, the “224Ra %ID/g” value is given as 19.40±1.97 %ID/g in data set [1] (Femur) and 19.62±1.28 %ID/g in data set [1] (Skull). Further, the “%ID/g of 212Pb without 212Pb ingrowth from 224Ra” value is 48.47±7.57 %ID/g in data set [1] (Kidneys) and 1.71±1.29 %ID/g in data set [1] (Tumour (C4-2 xenograft)).

As to `[Ra]` [radium], the “radium excreted by intestinal clearance” value in data set [2] is listed as “more than 90%”. In data set [3], the “renal clearance of radium” value is “about 70%”.
